This is an account of results in US7745465B2, “Method of enhancing cellular production of molecular chaperone, hydroxylamine derivatives useful for enhancing the chaperone production and the preparation thereof” (CytRx Corporation, priority 1995, dated 2010).

In series [1] the test system is isolated working rat hearts. The series is described as follows: Isolated working rat hearts, 10-min. coronary occlusion and 3-min. reperfusion. Particulars: for cardioprotection after pretreatment: 20 mg/kg. On the procedure: After a 10-min. aerobic working perfusion, hearts (n=10 in each group) were subjected to a 10-min. coronary occlusion followed by a 3-min. reperfusion in the presence of 0.05, 0.5, 5.0, 20.0, and 50 mg/L N-[2-hydroxy-3-(1-piperidinyl)propoxy]-3-pyridine carboximidoyl chloride maleate, respectively.
After excision of the hearts, they were subjected to the coronary occlusion protocol detailed above while perfused in presence/absence of 20 mg/l N-[2-hydroxy-3-(1-piperidinyl)propoxy]-3-piridinecarboximidoyl chloride maleate.

The next series concerns yeast cells. The experiment in a line: Proliferation of yeast cells. It is filed as cell-based.
In a further series the test system is hsp26 mRNA. The series is described as follows: Northern blot of hsp26 mRNA in S. cerevisiae. The class given is cell-based, Saccharomyces cerevisiae. The note with it: 10-100 μM for 5 min. to 1 hour at 25° C. The protocol: To S. cerevisiae cells that were maintained at 25° C., varying concentration of N-[2-hydroxy-3-(1-piperidinyl)propoxy]-3-piridinecarboximidoyl chloride maleate was introduced (concentrations between 10 to 100 μM), cells were then incubated for one hour at 25° C. in the presence of N-[2-hydroxy-3-(1-piperidinyl)propoxy]-3-piridinecarboximidoyl chloride maleate. The temperature was then increased to 42° C., and the oxygraph measurements were taken as described in the Patriarca reference.
The cells treated with N-[2-hydroxy-3-(1-piperidinyl)propoxy]-3-pyridine carboximidoyl chloride maleate were tested for concomitant induction of hsp genes, using Northern Blotting procedure. The method of extracting, purifying mRNAs from eukaryotic cells, and analyzing the RNA thus obtained using Northern blotting procedure is well known in the art and described in Maniatis, and Maresca, et al. Archives Medial Research 24: 247-249 (1993), both of the references being fully incorporated herein. The Northern blotting protocol is also described in Example 7 set forth above. Hsp 26 and hsp70 DNA sequences were used as probes.

The next series relates to HaCaT cells. The experiment in a line: Protection of HaCaT keratinocytes against 48° C. heat exposure (viability). It is filed as cell-based, human. An excerpt: HaCaT cell line is a spontaneously immortalized, ancuploid human keratinocyte cell line derived from normal human adult skin (Boukamp et al., J. Cell Biol. 106:761-771 (1988)), HaCaT is a cell line with full epidermal differentiation capacity, with normal keratinization and with nontumorogenic character. This rapidly multiplying keratinocyte line with high ditharnol sensitivity is also characterized by the presence of steroid receptors. HaCaT cells (4×10^5 cells per Petri-dish with a diameter of 35 mm) were seeded and grown in DMEM supplemented with 5% fetal calf serum (Gibco, Cat. No. 011-6290H) under a humidified atmosphere of 5% CO2 at 37° C. 24 hours after plating, the cultures were rinsed with PBS and treated by heat or light.
The confluent cultures of the cells were exposed to heat (42, 44, 46, 47, 48° C.) or UV light (UVA I, 2, 4, 6 J/cm^2). Heat exposure was provided in circulating water baths. As a UV light source, Waldmann PUVA 4000 was used with an energy spectrum of the final output between 320 an 390 nm, peaking at 365 nm. The energy output was monitored by an IL-1700 radiometer equipped with UVA and UVB sensor.
The morphology of the cells was monitored using phase contrast microscopy (Opton Axioplan Microscope, with Plan-Apochromat Ph phase contrast objectives). […]

In the case of `O=C(O)/C=C\C(=O)O.OC(CON=C(Cl)c1cccnc1)CN1CCCCC1` (stereo not shown) [N-[2-hydroxy-3-(1-piperidinyl)-propoxy]3-pyridinecarboximidoyl chloride maleate], the cardioprotection after pretreatment result in series [1] (five hours before isolation of the hearts) was “not observable”; in series [1] (one hour before isolation of the hearts), “still afforded cardioprotection”. The “ischemia-induced deterioration of cardiac function” value in series [1] (0.05-50 mg/L, bell-shaped, 20 mg/L most pronounced) was “alleviated ischemia-induced deterioration of cardiac function”. The “heart rate before ischemia” value in series [1] (50 mg/L) is “significant bradycardia”. Moreover, the “coronary flow (CF)” value in series [1] (before ischemia, bell-shaped concentration-response) is listed as “increased coronary flow (CF)”. Further, in series [1] (higher concentrations), the reperfusion-induced ventricular fibrillation result is “dose-dependent antiarrhythmic effect”. In addition, the proliferative effect result in the series on yeast cells was “unexpected proliferative effect”. For the same compound, the “induction of hsp 26” value with hsp26 mRNA is listed as “induction of hsp 26 was observed”. Further, in the series with HaCaT cells (combined treatment with 42° C. and compound, 24 hours after 48° C.), the increase in viability came to 140%. Further, the “cell viability increased to” value in the series with HaCaT cells (pre-treatment 5×10^-5 M for one hour, 24 hours after the 48° C. treatment) is reported as 84%.
